Measured values published in patent US7846944B2, “Pyrazolo-pyridinone compounds and methods of use thereof” (Amgen Inc., priority 2007, dated 2010).

How the values were obtained:
[1] = test system: TNF-α secretion by LPS-treated THP1 cells; experiment: Lipopolysaccharide-activated THP1 cell TNF production assay; assay type: cell-based; conditions: Homo sapiens, THP-1; LPS, 3 hours, THP1 cells; read-out: IC50 in the THP-1 cellular TNF production assay
Method: Lipopolysaccharide-Activated THP1 Cell TNF Production Assay
THP1 cells were resuspended in fresh THP1 media (RPMI 1640, 10% heat-inactivated FBS, 1×PGS, 1×NEAA, plus 30 μM βME) at a concentration of 1.5×10^6 cells per mL. One hundred microliters of cells per well were plated in a polystyrene 96-well tissue culture plate. 1.5 micrograms per mL of bacterial LPS was prepared in THP1 media and transferred to the first 11 columns of a 96-well polypropylene plate. Column 12 contained only THP1 media for the LO control. Compounds were dissolved in 100% DMSO and serially diluted 3 fold in a polypropylene 96-well microtiter plate (drug plate). Columns 6 and 12 were reserved as controls (HI controls and LO controls respectively) and contained only DMSO. 10 μL of LPS followed by one microliter of inhibitor compound from the drug plate was transferred to the cell plate. The treated cells were induced to synthesize and secrete TNF-α in a 37° C. humidified incubator with 5% CO2 for 3 hours. Fifty microliters of conditioned media was transferred to a 96-well MULTI-ARRAY™ 96-well small spot plate—custom coated with MAB610 containing 100 μL of 2× Read Buffer P supplemented with 0.34 nM AF210NA polyclonal Ab labeled with ruthenium (MSD-Sulfo-TAG™-NHS ester). After an overnight incubation at room temperature with shaking, the reaction was read on the Sector Imager™ 6000. […] The amount of secreted TNF-α in the presence of AMG compounds compared with that in the presence of DMSO vehicle alone (HI control) was calculated using the formula: % control (POC)=(cpd−average LO)/(average HI−averageLO)*100. Data (consisting of POC and inhibitor concentration in μM) was fitted to a 4-parameter equation (y=A+((B−A)/(1+((x/C)^D))), where A is the minimum y (POC) value, B is the maximum y (POC), C is the x (cpd concentration) at the point of inflection and D is the slope factor) using a Levenburg-Marquardt non-linear regression algorithm.

recombinant human p38α = recombinant human p38α (Homo sapiens, UniProt Q16539); experiment: Purified and activated recombinant human p38α HTRF kinase assay; assay type: biochemical; conditions: 1 nM p38α, 50 μM ATP, GST-ATF2 substrate, read-out: p38a IC50
Method: Purified and Activated Recombinant Human p38α Assay
• Kinase Reaction Buffer: Kinase reaction buffer for p38α HTRF assays consists of 50 mM Tris-pH 7.5, 5 mM MgCl2, 0.1 mg/mL BSA, 100 μM Na3VO4 and 0.5 mM DTT. • HTRF Detection Buffer: HTRF detection buffer contains 100 mM HEPES-pH 7.5, 100 mM NaCl, 0.1% BSA, 0.05% Tween-20, and 10 mM EDTA. • Serial Dilution of Compounds: Compounds were dissolved in 100% DMSO and serially diluted (3 fold, 10 point) in a polypropylene 96-well microtiter plate (drug plate). The final starting concentration of compounds in the p38α enzymatic assays was 1 μM. Columns 6 and 12 (HI controls and LO controls respectively) in the drug plate were reserved as controls and contained only DMSO. • Kinase Reaction The p38α kinase reactions were carried out in a polypropylene 96-well black round bottom assay plate in total volume of 30 μL kinase reaction buffer. Appropriate concentration of purified and activated enzyme (recombinant human) was mixed with indicated concentration of ATP and 100 nM GST-ATF2-Avitag, in the presence or absence (HI control) of Compound. See table below for actual concentrations. In the absence of substrate, the background was measured as LO control. The reaction was allowed to incubate for 1 hour at RT. • Assay Reagent Concentrations: The final reagent concentrations were 1 nM p38α and 50 μM ATP. […] After 60 minutes incubation at room temperature, the assay plate was read in a Discovery Plate Reader. The wells were excited with coherent 320 nm light and the ratio of delayed ([…] post excitation) emissions at […] (native europium fluorescence) and 665 nm (europium fluorescence transferred to allophycocyanin—an index of substrate phosphorylation) was determined (Park et al, 1999). • Data Analysis: The proportion of substrate phosphorylated in the kinase reaction in the presence of compound compared with that phosphorylated in the presence of DMSO vehicle alone (HI control) was calculated using the formula: % control (POC)=(compound−average LO)/(average HI−average LO)*100. Data (consisting of POC and inhibitor concentration in μM) was fitted to a 4-parameter equation (y=A+((B−A)/(1+((x/C)^D))), where A is the minimum y (POC) value, B is the maximum y (POC), C is the x (compound concentration) at the point of inflection and D is the slope factor, using a Levenburg-Marquardt non-linear regression algorithm.
The inhibition constant (Ki) of the inhibitor was estimated from the IC50 (compound concentration at the point of inflection C) using the Cheng-Prussof equation: Ki=IC50/(1+S/Km), where S is the ATP substrate concentration, and Km is the Michaelis constant for ATP as determined experimentally. All results were expressed as the mean±the standard error of the mean. Data acquisition and non-linear regression algorithms were performed using Activity Base v5.2 and XL-fit software v4.1 respectively. All data was archived using Activity Base v5.2 software.

Sequence of recombinant human p38α (Q16539 whole entry): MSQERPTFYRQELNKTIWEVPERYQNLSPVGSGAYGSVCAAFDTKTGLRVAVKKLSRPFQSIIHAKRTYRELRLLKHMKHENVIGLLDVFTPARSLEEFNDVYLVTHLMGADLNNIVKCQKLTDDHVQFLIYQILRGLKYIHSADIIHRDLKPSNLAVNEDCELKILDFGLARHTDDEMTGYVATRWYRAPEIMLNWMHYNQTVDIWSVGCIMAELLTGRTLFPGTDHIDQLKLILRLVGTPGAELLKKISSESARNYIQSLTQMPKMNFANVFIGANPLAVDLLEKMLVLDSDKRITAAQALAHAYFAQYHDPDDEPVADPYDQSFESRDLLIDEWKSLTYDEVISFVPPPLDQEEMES

IC50 [1]	IC50 (recombinant human p38α)	SMILES
≤ 175 nM	2.3 nM	Cc1c(F)cc(C(N)=O)cc1-c1cc2cnn(-c3ccccc3Cl)c2n(C)c1=O [Example 1, 3-(1-(2-chlorophenyl)-7-methyl-6-oxo-6,7-dihydro-1H-pyrazolo[3,4-b]pyridin-5-yl)-5-fluoro-4-methylbenzamide]
≤ 175 nM	2.5 nM	CCn1c(=O)c(-c2cc(C(=O)NC3CC3)cc(F)c2C)cc2cnn(-c3ccccc3F)c21 [Example 6, N-cyclopropyl-3-(7-ethyl-1-(2-fluorophenyl)-6-oxo-6,7-dihydro-1H-pyrazolo[3,4-b]pyridin-5-yl)-5-fluoro-4-methylbenzamide]
≤ 175 nM	2.2 nM	Cc1c(F)cc(C(=O)NC2CC2)cc1-c1cc2cnn(-c3ccccc3F)c2n(C)c1=O [Example 9, N-cyclopropyl-3-fluoro-5-(1-(2-fluorophenyl)-7-methyl-6-oxo-6,7-dihydro-1H-pyrazolo[3,4-b]pyridin-5-yl)-4-methylbenzamide]
≤ 175 nM	2.9 nM	Cc1ccc(C(=O)Nc2ccnn2C)cc1-c1cc2cnn(-c3c(F)cccc3F)c2n(C)c1=O [Example 10, 3-(1-(2,6-difluorophenyl)-7-methyl-6-oxo-6,7-dihydro-1H-pyrazolo[3,4-b]pyridin-5-yl)-4-methyl-N-(1-methyl-1H-pyrazol-5-yl)benzamide]
≤ 175 nM	2.6 nM	Cc1c(F)cc(C(=O)NC2CC2)cc1-c1cc2cnn(-c3ccc(F)cc3F)c2n(C)c1=O [Example 11, N-cyclopropyl-3-(1-(2,4-difluorophenyl)-7-methyl-6-oxo-6,7-dihydro-1H-pyrazolo[3,4-b]pyridin-5-yl)-5-fluoro-4-methylbenzamide]
≤ 175 nM	4.2 nM	Cc1ccc(C(=O)NC2CC2)cc1-c1cc2cnn(-c3ccccc3C)c2n(C)c1=O [Example 14, N-cyclopropyl-4-methyl-3-(7-methyl-1-(2-methylphenyl)-6-oxo-6,7-dihydro-1H-pyrazolo[3,4-b]pyridin-5-yl)benzamide]
≤ 175 nM	5.2 nM	Cc1ccccc1-n1ncc2cc(-c3cc(C(=O)NC4CC4)cc(F)c3C)c(=O)n(C)c21 [Example 15, N-cyclopropyl-3-fluoro-4-methyl-5-(7-methyl-1-(2-methylphenyl)-6-oxo-6,7-dihydro-1H-pyrazolo[3,4-b]pyridin-5-yl)benzamide]
≤ 175 nM		Cc1c(F)cc(C(=O)NC2CC2)cc1-c1cc2cnn(C(C)C)c2n(C)c1=O [Example 17, N-cyclopropyl-3-fluoro-4-methyl-5-(7-methyl-1-(1-methylethyl)-6-oxo-6,7-dihydro-1H-pyrazolo[3,4-b]pyridin-5-yl)benzamide]
≤ 175 nM	3 nM	Cc1ccc(C(=O)Nc2ccon2)cc1-c1cc2cnn(-c3c(F)cccc3F)c2n(C)c1=O [Example 18, 3-(1-(2,6-difluorophenyl)-7-methyl-6-oxo-6,7-dihydro-1H-pyrazolo[3,4-b]pyridin-5-yl)-N-3-isoxazolyl-4-methylbenzamide]
≤ 175 nM	18 nM	Cc1cnc(C(=O)NC2CC2)cc1-c1cc2cnn(-c3c(F)cccc3F)c2n(C)c1=O [Example 19, N-cyclopropyl-4-(1-(2,6-difluorophenyl)-7-methyl-6-oxo-6,7-dihydro-1H-pyrazolo[3,4-b]pyridin-5-yl)-5-methyl-2-pyridinecarboxamide]
≤ 175 nM	7 nM	Cc1c(F)cc(C(=O)NC(C)C)cc1-c1cc2cnn(-c3c(F)cccc3F)c2n(C)c1=O [Example 21, 3-(1-(2,6-difluorophenyl)-7-methyl-6-oxo-6,7-dihydro-1H-pyrazolo[3,4-b]pyridin-5-yl)-5-fluoro-4-methyl-N-(1-methylethyl)benzamide]
≤ 175 nM	6.2 nM	CNC(=O)c1cc(F)c(C)c(-c2cc3cnn(-c4c(F)cccc4F)c3n(C)c2=O)c1 [Example 22, 3-(1-(2,6-difluorophenyl)-7-methyl-6-oxo-6,7-dihydro-1H-pyrazolo[3,4-b]pyridin-5-yl)-5-fluoro-N,4-dimethylbenzamide]
≤ 175 nM	3.9 nM	Cc1c(F)cc(C(=O)NC2CC2)cc1-c1cc2cnn(-c3cc(F)ccc3F)c2n(C)c1=O [Example 23, N-cyclopropyl-3-(1-(2,5-difluorophenyl)-7-methyl-6-oxo-6,7-dihydro-1H-pyrazolo[3,4-b]pyridin-5-yl)-5-fluoro-4-methylbenzamide]
≤ 175 nM	6.2 nM	Cc1ccc(C(=O)NC2CC2)cc1-c1cc2cnn(-c3cc(F)ccc3F)c2n(C)c1=O [Example 24, N-cyclopropyl-3-(1-(2,5-difluorophenyl)-7-methyl-6-oxo-6,7-dihydro-1H-pyrazolo[3,4-b]pyridin-5-yl)-4-methylbenzamide]
≤ 175 nM	1.1 nM	Cc1ccc(C(=O)NC2(C)CC2)cc1-c1cc2cnn(-c3cc(F)ccc3F)c2n(C)c1=O [Example 25, 3-(1-(2,5-difluorophenyl)-7-methyl-6-oxo-6,7-dihydro-1H-pyrazolo[3,4-b]pyridin-5-yl)-4-methyl-N-(1-methylcyclopropyl)benzamide]
≤ 175 nM	2.3 nM	Cc1ccc(C(=O)Nc2ccon2)cc1-c1cc2cnn(-c3cc(F)ccc3F)c2n(C)c1=O [Example 26, 3-(1-(2,5-difluorophenyl)-7-methyl-6-oxo-6,7-dihydro-1H-pyrazolo[3,4-b]pyridin-5-yl)-N-3-isoxazolyl-4-methylbenzamide]
≤ 175 nM	1.1 nM	Cc1ccc(C(=O)Nc2nccs2)cc1-c1cc2cnn(-c3c(F)cccc3F)c2n(C)c1=O [Example 28, 3-(1-(2,6-difluorophenyl)-7-methyl-6-oxo-6,7-dihydro-1H-pyrazolo[3,4-b]pyridin-5-yl)-4-methyl-N-1,3-thiazol-2-ylbenzamide]
≤ 175 nM		Cn1c(=O)c(-c2cc(C(=O)NC3CC3)ccc2Cl)cc2cnn(-c3cc(F)ccc3F)c21 [Example 29, 4-chloro-N-cyclopropyl-3-(1-(2,5-difluorophenyl)-7-methyl-6-oxo-6,7-dihydro-1H-pyrazolo[3,4-b]pyridin-5-yl)benzamide]
≤ 175 nM		Cc1ccc(C(=O)NC2(C)CC2)cc1-c1cc2cnn(-c3c(F)cccc3F)c2n(C)c1=O [Example 30, 3-(1-(2,6-difluorophenyl)-7-methyl-6-oxo-6,7-dihydro-1H-pyrazolo[3,4-b]pyridin-5-yl)-4-methyl-N-(1-methylcyclopropyl)benzamide]
